For assay [1], the system named is differentiated human derived cell lines. The following applies: glial cells activated by LPS/IFNγ or IFNγ and treated with STS; cited from earlier work.
On assay [2], the source says:
With or without one or more of the following adjuvant cofactors given one to three times daily
I did Viome testing and must avoid some foods and take pre and pro biotics that they recommend.

For assay [3] the following is noted: 2018 study, cited from earlier work.
The conditions of assay [4]: corn and wheat samples; cited from earlier work.
Assay [5] relates to human microglia and astrocytes. The following applies: cited from earlier work.
The conditions of assay [6]: cited from earlier work.

The values that follow come from patent publication US20240390414A1 (priority 2023, published 2024).

As for `O=S([O-])([O-])=S.[Na+].[Na+]` [STS, Sodium thiosulfate], the neuroprotection result in assay [1] was “significant enhancement of neuroprotection”. Moreover, in assay [2] (in combination with sporanox), the “changes observed (patient questionnaire comment)” value is “more aware and more present”. Further, in assay [2] (on day 1, one patient's comment), the stimming reduced is 80-90%. In addition, the “reduction in finger flicking and finger writing stimming” value in assay [2] (one patient's comment) lay within 30 to 40%. Moreover, the “toxicity of deoxynivalenol (DON)” value in assay [3] (Journal of Environmental Science and Health) is on record as “reduced the toxicity”. Also, in assay [3], the “levels of oxidative stress and inflammation caused by DON exposure” value was “able to reduce the levels of oxidative stress and inflammation”. The “levels of aflatoxins, ochratoxin A, and zearalenone” value in assay [4] was “significantly reduce the levels”. Moreover, the “H2S and GSH expression” value in assay [5] is listed as “increases”.
Turning to `O.O.O.O.O.O=S([O-])([O-])=S.[Na+].[Na+]` [sodium thiosulfate pentahydrate], the treatment for calciphylaxis entry in assay [6] (Ackermann et al. 2007) was “effective treatment for calciphylaxis”. In addition, the “treatment for vascular calcification” value in assay [6] (O'Neill 2008) is reported as “effective treatment for vascular calcification”. In assay [6] (Skinner 1995), the “prevention of platinum-induced ototoxicity and nephrotoxicity” value is “effective treatment to prevent platinum-induced ototoxicity and nephrotoxicity”.
